Reference: patent publication US8554305B2, “Method and apparatus for providing pulses inhalation of 17O2 for magnetic resonance imaging of cerebral metabolism” (The Trustees of the University of Pennsylvania, priority 2007, dated 2013)

Assays:
[1] = Serial arterial blood sampling and ^17O NMR spectroscopy of serum during and after 1 minute of ^17O2 delivery; assay type: in vivo, pig
Description: During imaging, arterial blood sampling was performed on several occasions. An optimized protocol was developed and repeated. An arterial catheter was placed under ultrasound guidance into the femoral artery in the large animal fluoroscopy suite. Approximately 2 cc of blood was collected over 3-5 seconds into each Vacutainer Serum Separator Tube (Becton-Dickinson, #367983) at a rate of one sample each 10 seconds for the first 12 samples and then 60 seconds each for six more samples. Four control samples were taken before the experiment began. The tubes used are designed to reseal immediately after needle puncture. Their ability to remain sealed was tested by taking several tubes at random, creating a strong negative pressure inside the tube with a vacuum pump attached to a needle, and then repeated puncture with larger diameter needles than used for blood sampling. The pressure inside the tubes was checked after over a dozen punctures and had changed less than 10%.
A concern is that water ^17O will exchange with ambient CO2 through bicarbonate ion, a very fast reaction when catalyzed by carbonic anhydrase as in whole blood (Mills G A, Urey H C. The Kinetics of Isotopic Exchange between Carbon Dioxide, Bicarbonate Ion, Carbonate Ion and Water. J Am Chem Soc 1940; 62 (5):1019-1026). To minimize this effect, serum was separated by centrifugation soon after the experiment. Tubes were then frozen at −20 C and kept sealed until the time of analysis. Centrifugation places a gel between the serum and red blood cells in these tubes to fully separate the two. This procedure serves to protect the samples in two ways. […]
An 11.7T Bruker DMX400 Avance Spectrometer equipped with a 1H/X nucleus decoupler probe tuned to ^17O was used to measure 1 mL of each sample loaded into 5 mm ID NMR tubes just before analysis. Spectra were recorded without lock at room temp. […]
Blood sampling was performed during scanning on two separate occasions. […] Serum concentration of H2^17O was calculated by integrating the H2^17O peak obtained by ^17O spectroscopy of the blood samples taken at the given time points. […]

[2] = measurements made in tissue phantoms; cited from earlier work
[3] = T1ρ relaxivity in H2^17O doped phosphate buffered saline phantoms; assay type: physicochemical; details: spin lock amplitude 100 Hz, 1.5T
Description: The ability of the sequence to detect changes in H2^17O concentration was measured by imaging six 15 mL conical tubes filled with 1× Phosphate Buffered Saline doped with H2^17O (Isotec, Miamisberg, Ohio) in steps of 5 mM from 20 mM (natural abundance) to 45 mM. These tubes were sealed and placed into a 9 cm jar filled with water. A receive only loop coil was placed around the jar and used in combination with the body transmit coil. Cross-sectional images of the tubes were acquired with a spin lock amplitude of 100 Hz and spin lock times of 200, 400, 600, 800, and 1000 msec. Imaging parameters are: FoV 90 mm^2, ST 5 mm, TR/TE 10.4/5.2 ms, Matrix 128^2, BW 130 Hz/Px, α=180°.
The concentrations of the phantoms were determined experimentally according to the following equation:
[formula] Where fn is the natural abundance [H2^17O], S is the signal from a pixel or ROI with natural abundance (NA) [H2^17O] or [H2^17O] added (^17O) taken as a proton density weighted image to account for coil sensitivity or when T1ρ pre-encoded (T1ρ). R1ρ is the relaxivity due to H2^17O and TSL is the spin lock time.
FIG. 12 provides cross-sectional images of 15 mL conical tubes filled with phosphate buffered saline and doped with increasing amounts of H2^17O to concentrations from 20 mM (natural abundance) to 45 mM (25 mM added).

pig brain = assay: Pulsed ^17O2 inhalation (2 breaths, 40% enrichment) with T1ρ-weighted MRI of pig brain at 1.5 Tesla; assay type: in vivo; details: 70 Kg pig; ventricle signal normalized to whole brain
Description: To further test the apparatus 100, a 70 Kg Yorkshire pig was anesthetized with intramuscular doses of ketamine (25 mg/Kg) and xylazine (2.5 mg/Kg) and orally intubated. General anesthesia was maintained throughout the experiment with intravenous doses of ketamine (1-2 mg/Kg/hr) and diazepam (0.5-1 mg/Kg/hr). Once placed in the MRI scanner 114 in the prone position, the endotracheal tube was connected to the circuit and mechanical ventilation commenced in volume control mode with a tidal volume of 16.2 ml/Kg, a respiratory rate of 6 breaths/min, I:E ratio of 1:1 and zero end-expiratory pressure. After collecting baseline images on room air, the source valve was switched to 100% O2. After 5 minutes to allow for denitrogenation, further baseline images were obtained while breathing 100% oxygen. […]
Overlay of the signal decreases, ranging from 0% decrease to 1% decrease, an average of 40-50 seconds after the start of the ^17O2 breaths, as determined by indirect T1ρ imaging with a spin-lock sequence. […]
The time course of arterial ^17O2 concentrations, estimated from a model of alveolar gas dilution (appendix), is shown in FIG. 5a. […] Inspiratory tidal volume is measured from the calibrated output of the inhalation pump 102. […]

| Structure (SMILES) | delay between the start of ^17O2 delivery and the start of wash-in in arterial blood ([1]; 19.8 kg pig, second experiment) | delay between the start of ^17O2 delivery and the start of wash-in in arterial blood ([1]; 40.8 kg pig, 80% N2/20% O2 (70% ^17O enriched) for 60 seconds, femoral artery serum) | time when recirculation begins ([1]; arterial blood sampling and analysis of mH2^17O content, pigs) | R1ρ, relaxation enhancement of tissue due to H2^17O [2] | R1ρ(100 Hz) [3] | delay of decrease in scaled signal in the cerebral ventricle after the initial inhalation of ^17O2 (pig brain) |
| --- | --- | --- | --- | --- | --- | --- |
| [17OH2] [H2^17O] | ~70 s | about 90 seconds | 60 to 80 s | 5.91*10^−6 (μmol/g water)^−1 ms^−1 | 1.37e-05 mM⁻¹ ms⁻¹ |  |
| O=O [^17O2] |  |  |  |  |  | about 110 seconds |
